Where a name gives a salt, the structure may show the parent alone.
What was measured:
[1] = tested on: mice; test: Acute intraperitoneal toxicity in groups of six mice; assay type: in vivo; conditions: for mice died: six mice
Procedure: In tests when metabolite A-27106 sodium salt was administered intraperitoneally to groups of six mice each:
In similar tests, when monensin sodium salt was administered intraperitoneally to groups of six mice each: […]

[2] = Electrometric titration (pKa); assay type: physicochemical; conditions: pH 8; electrometric titration in water, initial pH of 8
Source text: The acid form of metabolite A-27106 is a white amorphous solid, having a molecular weight of about 832.

[3] = tested on: Eimeria tenella; test: Control of coccidiosis in chicks inoculated with Eimeria tenella, drug in feed; assay type: in vivo; conditions: for Avg. Wt. Gain/Bird: 7 days after inoculation; for Lesion Scores: number of birds at score 0 / Lesion Scores: number of birds at score 1 / Lesion Scores: number of birds at score 2 / Lesion Scores: number of birds at score 3 / Lesion Scores: number of birds at score 4: of 15 birds
Procedure: A group of 75 one-week-old, healthy, incubator and battery-reared, cross-bred male chicks, of a heavy broiler type was used. The birds were divided into five groups of 15 birds having three replicates of five-bird subgroups each. Each subgroup was reared out of contact with the other subgroups. A first group was held as an untreated healthy control under favorable conditions. A second group was treated as the first group, but was inoculated with coccidiosis by oral administration of a dose containing 10^5 sporulated oocysts of Eimeria tenella. The third, fourth and fifth groups were treated as the second group except that, 24 hours before the said inoculation, their feed was modified by addition of metabolite A-27106 sodium salt in concentrations of 100, 150, and 200 parts per million (ppm), respectively.
Seven days after inoculation, the birds were weighed, sacrificed and examined for evidence of coccidial lesions. Coccidial involvement was expressed on an arbitrary scale of zero to four. Lesion scores indicate the number of birds at each level. Zero indicates no evidence of coccidiosis. One designates the least coccidial involvement that can be seen. Two indicates moderate involvement with little or no hemorrhage and no severe tissue damage. Three indicates hemorrhage, swelling of the caeca, and extensive tissue involvement. Four indicates hemorrhage, a caecal core of clotted blood and debrided epithelial cells. Birds scoring […] or less usually recover if not further infected with coccidia.

[4] = tested on: rumen fluid; test: Volatile fatty acid production in incubated diluted rumen fluid; design: species or system steer; conditions: 16 hours, 38°C.
Source text: Rumen fluid is obtained from a steer with a surgically-installed fistula opening into the rumen. The steer is maintained on a high-grain ration, the composition of which follows:
A sample of rumen fluid is strained through four layers of cheesecloth, and the filtrate is collected. The particulate matter retained by the cheesecloth is resuspended in enough physiological buffer to return it to the original volume of the rumen fluid, and this suspension is strained again. The buffer used has the following composition:
The two filtrates are combined and allowed to stand until particulate matter separates to the top. The clear layer is separated, diluted with the same buffer (1:1) and then adjusted to pH 7.0.
The diluted rumen fluid (10 ml.) is placed in a 25-ml. flask with 40 mg. of the above-described feed, an additional 5 mg. of soybean protein, and the compound to be tested. Four replicate flasks are used per treatment. Two sets of four control flasks each are also employed. A zero-time control and an incubated 16-hour control are used. All test flasks are incubated for 16 hours at 38°C. After incubation the pH is measured, and 25 percent metaphosphoric acid (2 ml.) is added to each flask. The samples are allowed to settle, and the supernatant is analyzed by gas chromatography for propionate, acetate, and butyrate compounds.
Test-compound results are statistically compared with the control results.

[5] = Solubility in organic solvents; assay type: physicochemical
[6] = tested on: birds; test: Other studies: palatability and toxicity in birds; assay type: in vivo
[7] = tested on: coccidiosis; test: Other studies with A-27106 sodium salt alone and combined with monensin in the diet; assay type: in vivo, birds
Procedure: Numerous other studies were carried out with metabolite A-27106 sodium salt, both alone and in combination with monensin.

[8] = medicated birds with high lesion scores
[9] = 0.2 mcg./ml. diluted rumen fluid

CCC1(C2OC(C3OC(O)(COC4OC(CO)C(O)C(O)C4O)C(C)CC3C)CC2C)CCC(C2(C)CCC3(CC(O)C(C)C(C(C)C(OC)C(C)C(=O)O)O3)O2)O1 (stereo not drawn) [Metabolite A-27106]
toxicity compared with monensin ([1]; mice): less toxic than monensin
pKa [2]: 7.2

CCC1(C2OC(C3OC(O)(COC4OC(CO)C(O)C(O)C4O)C(C)CC3C)CC2C)CCC(C2(C)CCC3(CC(O)C(C)C(C(C)C(OC)C(C)C(=O)O)O3)O2)O1 (stereo not drawn) [metabolite A-27106 sodium salt]
mice died ([1]; 50 mg./kg.): one out of six died
mice died ([1]; 100 mg./kg.): three out of six died
Avg. Wt. Gain/Bird ([3]; 100 ppm in the diet): 157 Grams
Lesion Scores: number of birds at score 0 ([3]; 100 ppm in the diet): 4
Lesion Scores: number of birds at score 1 ([3]; 100 ppm in the diet): 1
Lesion Scores: number of birds at score 2 ([3]; 100 ppm in the diet): 0
Lesion Scores: number of birds at score 3 ([3]; 100 ppm in the diet): 3
Lesion Scores: number of birds at score 4 ([3]; 100 ppm in the diet): 7
Avg. Wt. Gain/Bird ([3]; 150 ppm in the diet): 150 Grams
Lesion Scores: number of birds at score 0 ([3]; 150 ppm in the diet): 3
Lesion Scores: number of birds at score 1 ([3]; 150 ppm in the diet): 3
Lesion Scores: number of birds at score 2 ([3]; 150 ppm in the diet): 1
Lesion Scores: number of birds at score 3 ([3]; 150 ppm in the diet): 1
Lesion Scores: number of birds at score 4 ([3]; 150 ppm in the diet): 7
Avg. Wt. Gain/Bird ([3]; 200 ppm in the diet): 166 Grams
Lesion Scores: number of birds at score 0 ([3]; 200 ppm in the diet): 5
Lesion Scores: number of birds at score 1 ([3]; 200 ppm in the diet): 0
Lesion Scores: number of birds at score 2 ([3]; 200 ppm in the diet): 0
Lesion Scores: number of birds at score 3 ([3]; 200 ppm in the diet): 0
Lesion Scores: number of birds at score 4 ([3]; 200 ppm in the diet): 10
condition of birds [3, 8]: appeared to be in good condition
fecal blood [3, 8]: scanty or absent
Butyrate, ratio of concentration in treated to control flasks [4, 9]: 0.91
Propionate, ratio of concentration in treated to control flasks [4, 9]: 1.02
Total VFA, ratio of concentration in treated to control flasks [4, 9]: 1.07
Butyrate, ratio of concentration in treated to control flasks ([4]; 1 mcg./ml. diluted rumen fluid): 0.96
Propionate, ratio of concentration in treated to control flasks ([4]; 1 mcg./ml. diluted rumen fluid): 1.42
Total VFA, ratio of concentration in treated to control flasks ([4]; 1 mcg./ml. diluted rumen fluid): 0.98
Butyrate, ratio of concentration in treated to control flasks ([4]; 5 mcg./ml. diluted rumen fluid): 0.73
Propionate, ratio of concentration in treated to control flasks ([4]; 5 mcg./ml. diluted rumen fluid): 2.15
Total VFA, ratio of concentration in treated to control flasks ([4]; 5 mcg./ml. diluted rumen fluid): 1.03
solubility ([5]; highly polar solvents): readily soluble
solubility ([5]; liquid lower alkanes): relatively insoluble
solubility ([5]; lower aliphatic alcohols): soluble
solubility ([5]; nonpolar solvents): insoluble
solubility ([5]; phenol, diethyl ether and acetone): partially soluble
solubility ([5]; solvents of intermediate polarity): varies in solubility
toxicity compared with monensin [6]: less toxic than was monensin
weight gains ([7]; 0.04 percent versus 0.01 percent in diet): no greater weight gains at 0.04 percent than at 0.01%
toxicity ([7]; higher rate (0.04 percent)): no evidence of toxicity
caecal lesions ([7]; higher rate (0.04 percent) versus 0.01 percent): fewer caecal lesions

CC[C@@]1([C@@H]2O[C@@H]([C@H]3O[C@@](O)(CO)[C@H](C)C[C@@H]3C)C[C@@H]2C)CC[C@H]([C@]2(C)CC[C@]3(C[C@H](O)[C@@H](C)[C@@H]([C@@H](C)[C@@H](OC)[C@H](C)C(=O)O)O3)O2)O1 [monensin sodium salt, reference compound]
mice died ([1]; 10 mg./kg.): one out of six died
mice died ([1]; 20 mg./kg.): three out of six died

Source: patent US3932619A, “Metabolite A-27106 and processes for its preparation and use” (Eli Lilly and Company, priority 1974, dated 1976)
